ChEMBL document CHEMBL1201862, “PubChem BioAssay data set” (2004)
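Each compound was tested at five concentrations against cells in 96-well plates for 48 hours. GI50 is the concentration that inhibits growth by half.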 Activity calls are given as the source filed them. Cut-off read from the data, not from the text of the source: active = GI50 up to about 1.1 µM and inactive = higher.

Tests used:
Test in all cases: NCI-60 cell line screen, 48 h
NCI-H226 = system: NCI-H226
786-0 = system: 786-0
OVCAR-8 = system: OVCAR-8
NCI-H460 = system: NCI-H460
RPMI-8226 = system: RPMI-8226
U-251 = system: U-251
UO-31 = system: UO-31
HCC 2998 = system: HCC 2998
NCI-H23 = system: NCI-H23
HCT-15 = system: HCT-15
SK-MEL-5 = system: SK-MEL-5
ACHN = system: ACHN
UACC-62 = system: UACC-62
A498 = system: A498
MOLT-4 = system: MOLT-4
TK-10 = system: TK-10
SN12C = system: SN12C
SR = system: SR

Row | Compound | GI50 (NCI-H226) | GI50 (786-0) | GI50 (OVCAR-8) | GI50 (NCI-H460) | GI50 (RPMI-8226) | GI50 (U-251) | GI50 (UO-31) | GI50 (HCC 2998) | GI50 (NCI-H23) | GI50 (HCT-15) [µM] | GI50 (SK-MEL-5) | GI50 (ACHN) | GI50 (UACC-62) | GI50 (A498) | GI50 (MOLT-4) | GI50 (TK-10) | GI50 (SN12C) | GI50 (SR)
1 | COC(=O)N1C=CC2=C(C)C3Nc4ccccc4C3C(C)=C2C1 (stereo unspecified) | 1.61 µM (inactive) | 0.54 µM (active) | 0.682 µM (active) | 0.256 µM (active) | 0.804 µM (active) | 3.1 µM (inactive) | 1.29 µM (inactive) | 1.95 µM (inactive) | 4.54 µM (inactive) | 1.12 | 3.15 µM (inactive) | 0.521 µM (active) | 1.72 µM (inactive) | 16.2 µM (inactive) | 0.234 µM (active) | 1.66 µM (inactive) | – | –
2 | O=C1c2cccc3cccc(c23)C(=O)N1CCN(CCO)CCO | 16 µM (inactive) | 40.6 µM (inactive) | 16.3 µM (inactive) | 23.4 µM (inactive) | 12.9 µM (inactive) | 32.4 µM (inactive) | 30.5 µM (inactive) | 26.2 µM (inactive) | 25.4 µM (inactive) | 22.8 | 17.2 µM (inactive) | 23.9 µM (inactive) | 20.6 µM (inactive) | 17.3 µM (inactive) | 24.2 µM (inactive) | 17.5 µM (inactive) | 25.4 µM (inactive) | 11.3 µM (inactive)
3 | Brc1cc2c(cc1C1SCCS1)OCO2 | – | > 100 µM (inactive) | > 100 µM (inactive) | > 100 µM (inactive) | 89.5 µM (inactive) | > 100 µM (inactive) | > 100 µM (inactive) | > 100 µM (inactive) | > 100 µM (inactive) | > 100 | > 100 µM (inactive) | > 100 µM (inactive) | > 100 µM (inactive) | > 100 µM (inactive) | 80.4 µM (inactive) | > 100 µM (inactive) | – | > 100 µM (inactive)
4 | CC1(C)C(=O)N(CCCCCCN2C(=O)C(C)(C)c3ccccc32)c2ccccc21 | 26.3 µM (inactive) | 18.2 µM (inactive) | 51.3 µM (inactive) | 54.3 µM (inactive) | 23 µM (inactive) | 36.6 µM (inactive) | 31.2 µM (inactive) | 71.6 µM (inactive) | 42.6 µM (inactive) | 34.3 | 18.6 µM (inactive) | 25.6 µM (inactive) | 22.9 µM (inactive) | > 100 µM (inactive) | 33.8 µM (inactive) | 58.3 µM (inactive) | 59.7 µM (inactive) | –
5 | Nc1ccc(C(=O)NN2C(=O)C(Cl)C2c2ccc(O)cc2)cc1 (stereo unspecified) | 25.4 µM (inactive) | 17.5 µM (inactive) | 26.5 µM (inactive) | 19.3 µM (inactive) | 49.1 µM (inactive) | 16.1 µM (inactive) | 23.3 µM (inactive) | – | 17.9 µM (inactive) | 21.4 | 17.2 µM (inactive) | 35.2 µM (inactive) | 14.9 µM (inactive) | 36 µM (inactive) | 16.1 µM (inactive) | 44.3 µM (inactive) | 20.1 µM (inactive) | –
6 | Cn1nc(-c2ccccc2)c(C(=O)/C=C/c2ccc(F)cc2)c(N2CCOCC2)c1=O | – | 16 µM (inactive) | 22.5 µM (inactive) | 24.4 µM (inactive) | 4.57 µM (inactive) | 16.7 µM (inactive) | 12.9 µM (inactive) | – | > 10 µM (inactive) | 23.6 | 14.8 µM (inactive) | 22.5 µM (inactive) | 18.1 µM (inactive) | 17.7 µM (inactive) | 14.2 µM (inactive) | 28.6 µM (inactive) | 28.3 µM (inactive) | –
7 | N#Cc1c2c(c(Cl)n3c1nc1ccccc13)CCCC2 | 1.74 µM (inactive) | 1.77 µM (inactive) | 2.57 µM (inactive) | 1.69 µM (inactive) | 1.7 µM (inactive) | 3.65 µM (inactive) | 3.06 µM (inactive) | 16.4 µM (inactive) | 4.54 µM (inactive) | 3.21 | 0.566 µM (active) | 3.56 µM (inactive) | – | 11.4 µM (inactive) | 3.89 µM (inactive) | 2.53 µM (inactive) | 2.09 µM (inactive) | 2.38 µM (inactive)
8 | CCc1cccc(=O)c([O-])c1.CCc1cccc(=O)c([O-])c1.[Bi+3].[Cl-] | 23.2 µM (inactive) | 9.1 µM (inactive) | 2.96 µM (inactive) | 6.49 µM (inactive) | – | 6.46 µM (inactive) | 10 µM (inactive) | 5.93 µM (inactive) | 13.5 µM (inactive) | 3.66 | 13.1 µM (inactive) | 8.17 µM (inactive) | 9.98 µM (inactive) | 15 µM (inactive) | 2.22 µM (inactive) | 4.42 µM (inactive) | 10.2 µM (inactive) | 3.71 µM (inactive)
9 | Nn1c(=O)n(Cc2ccccc2)n(-c2ccccc2)c1=O | > 100 µM (inactive) | > 100 µM (inactive) | > 100 µM (inactive) | > 100 µM (inactive) | > 100 µM (inactive) | > 100 µM (inactive) | > 100 µM (inactive) | > 100 µM (inactive) | > 100 µM (inactive) | – | > 100 µM (inactive) | > 100 µM (inactive) | > 100 µM (inactive) | > 100 µM (inactive) | > 100 µM (inactive) | > 100 µM (inactive) | > 100 µM (inactive) | > 100 µM (inactive)
10 | CC1=CP(=O)(OC(C)C)CC(C)=C1Cl (stereo unspecified) | > 100 µM (inactive) | > 100 µM (inactive) | > 100 µM (inactive) | > 100 µM (inactive) | 94.8 µM (inactive) | > 100 µM (inactive) | > 100 µM (inactive) | > 100 µM (inactive) | > 100 µM (inactive) | – | > 100 µM (inactive) | > 100 µM (inactive) | > 100 µM (inactive) | > 100 µM (inactive) | 32.7 µM (inactive) | > 100 µM (inactive) | > 100 µM (inactive) | 41.1 µM (inactive)
11 | COc1ccc(CN2C(=O)C(Cc3cc(OC)c(OC)c(C)c3OC)NC(=O)/C2=C/c2cc(OC)c(OC)c(C)c2OC)cc1 (stereo unspecified) | 18.7 µM (inactive) | 48.4 µM (inactive) | 32.1 µM (inactive) | 9.98 µM (inactive) | 28.3 µM (inactive) | 37.2 µM (inactive) | 23.4 µM (inactive) | 23.6 µM (inactive) | 43.1 µM (inactive) | – | 18 µM (inactive) | 31.7 µM (inactive) | 33.7 µM (inactive) | 49.4 µM (inactive) | 24.8 µM (inactive) | 33.5 µM (inactive) | 27.5 µM (inactive) | 20.3 µM (inactive)
12 | O=c1c2c([nH]c3cc4c(cc13)OCO4)-c1ccccc1C2 | 27.2 µM (inactive) | 28.1 µM (inactive) | 29.8 µM (inactive) | 22.3 µM (inactive) | 15 µM (inactive) | 17.2 µM (inactive) | 24.8 µM (inactive) | 24.4 µM (inactive) | 26.1 µM (inactive) | 19.3 | 16 µM (inactive) | 19.4 µM (inactive) | 17.1 µM (inactive) | – | 24.7 µM (inactive) | 10.7 µM (inactive) | 30.3 µM (inactive) | 18.1 µM (inactive)
13 | CCOc1ccccc1NC(=O)CC1SC(Nc2ccc([N+](=O)[O-])cc2)=NC1=O (stereo unspecified) | 20.4 µM (inactive) | 16.7 µM (inactive) | 21.5 µM (inactive) | 21.3 µM (inactive) | 6.95 µM (inactive) | 14.3 µM (inactive) | 17.2 µM (inactive) | 16.4 µM (inactive) | 16.6 µM (inactive) | – | 16 µM (inactive) | 17.3 µM (inactive) | 17.2 µM (inactive) | – | 19 µM (inactive) | 25.4 µM (inactive) | 20.4 µM (inactive) | –
14 | C=CCN(CC=C)CC(C(C)=O)C(c1ccccc1)c1c(O)c2ccccc2oc1=O (stereo unspecified) | 45.7 µM (inactive) | > 100 µM (inactive) | > 100 µM (inactive) | – | > 100 µM (inactive) | > 100 µM (inactive) | 18.2 µM (inactive) | > 100 µM (inactive) | > 100 µM (inactive) | > 100 | > 100 µM (inactive) | > 100 µM (inactive) | > 100 µM (inactive) | > 100 µM (inactive) | > 100 µM (inactive) | > 100 µM (inactive) | > 100 µM (inactive) | > 100 µM (inactive)
15 | CN(C)CCNC(=O)c1ccc(Cl)c2c(Nc3ccc(S(=O)(=O)N=C(N)N)cc3)c3ccccc3nc12 | 2.08 µM (inactive) | 14.3 µM (inactive) | 2.24 µM (inactive) | 1.63 µM (inactive) | – | 3.29 µM (inactive) | 0.349 µM (active) | 8.17 µM (inactive) | 4.68 µM (inactive) | 5.02 | 8.04 µM (inactive) | 4.22 µM (inactive) | 5.42 µM (inactive) | – | 0.358 µM (active) | 12.6 µM (inactive) | 3.15 µM (inactive) | 0.54 µM (active)
16 | Cc1ccc(C(=O)/C=C2\Nc3c(c(=O)oc4ccccc34)N=C2NC23CC4CC(CC(C4)C2)C3)cc1 | > 100 µM (inactive) | > 100 µM (inactive) | > 100 µM (inactive) | > 100 µM (inactive) | > 100 µM (inactive) | > 100 µM (inactive) | > 100 µM (inactive) | > 100 µM (inactive) | > 100 µM (inactive) | > 100 | > 100 µM (inactive) | > 100 µM (inactive) | > 100 µM (inactive) | – | > 100 µM (inactive) | > 100 µM (inactive) | > 100 µM (inactive) | > 100 µM (inactive)
17 | Cc1c(C(=O)O)oc2ccc([N+](=O)[O-])cc12 | – | > 100 µM (inactive) | > 100 µM (inactive) | > 100 µM (inactive) | > 10 µM (inactive) | > 100 µM (inactive) | > 100 µM (inactive) | > 100 µM (inactive) | > 100 µM (inactive) | > 100 | > 100 µM (inactive) | > 100 µM (inactive) | > 100 µM (inactive) | > 100 µM (inactive) | > 10 µM (inactive) | > 100 µM (inactive) | > 100 µM (inactive) | –
